Data taken from patent US8501715B2, “Oxidized lipids and uses thereof in the treatment of inflammatory diseases and disorders” (Vascular Biogenics Ltd., priority 2003, dated 2013).
“Also recorded” adds a separate entry of the source. Where two headings read alike, the source gives them in different places.

Experiments:
IFN-γ [1] = settings: in vivo oral treatment (0.1 μg/feed C57BL/6, ovalbumin; 10 and 100 μg/mouse/feed SJL, PLP 139-151); ex vivo restimulation
Method: (FIG. 26a) C57BL/6 mice were fed in alternate days from day −10 to day +10 with CI-201 (0.1 μg/feed) of PBS. On day 0, mice were immunized with ovalbumin in CFA. On day 10, draining lymph nodes were excised and cells stimulated with ovalbumin. Cells were expanded for a week and then re-stimulated for 4 hours with plate bound anti-CD3 and anti-CD28 (5 μg/ml) in the presence of monensin (2 μM) and tested for cytokine expression by intracellular staining. Results are gated on CD4+ T cells. […] Lymph nodes were collected 10 days later, stimulated ex vivo with 10 μg/ml of PLP 139-151 peptide or 0.5 μg/ml of anti CD3 and three days later supernatants were collected and tested by ELISA for cytokine production.
Lymph nodes were collected 10 days later, stimulated ex vivo with 10 μg/ml of PLP 139-151 peptide or 0.5 μg/ml of anti CD3 and three days later cytokine production from the supernatant was measured using the Duoset ELISA kit (R&D systems, Minneapolis, Minn.).
Ex-vivo ELISA and Intracellular staining: For intracellular staining, C57BL/6 were orally administered with CI-201 (0.1 μg/mouse/feed) or PBS as control, 5 times, once every other day. Dosing volume was 0.2 ml. Subsequently, mice were immunized subcutaneously in two flanks with 200 μl of emulsion containing 200 μg of ovalbumin and MT (100 μg). […]

Lewis rats = assay: Adjuvant-induced arthritis (AIA) in Lewis rats; format: in vivo, rat
CD11c+BMDC's = settings: 3 hours PGN 10 μg/ml with CI-201 20 μg/ml
Method: Gene Chip analysis: Mouse BMDC's were enriched for CD11c+DC (>90%) with mouse CD11c microbeads from 5-6 days cultures over MS or LS columns (Miltenyi biotech). […] RNA was prepared and used to generate cRNA. Preparation of cRNA, hybridization and scanning was done in the Weizmann Institute of Science (Rehovot, Israel) on the mouse genome 430A 2.0 array (Affymetrix, Santa Clara, Calif.).

IFN-γ [2] = assay: RT-PCR cytokine expression in the aorta: IFN-γ; format: in vivo; settings: oral 1 mg/mouse 5 times every other day, 8 weeks after final administration
Method: (§1) The effect of ALLE, CI-201, its corresponding acetal derivatives Et-acetal and Me-acetal (Compounds IIa and IIb, FIG. 10) and oxLDL on cytokine expression in the target organ—the aorta—was evaluated using RT-PCR as described hereinabove. […] Oral administrations took place 5 times every other day.

TNF-α [3] = settings: splenic CD11b cells, IFN-γ over night, PGN 24 hours
Method: (§2) Isolation of Monocytes/Macrophages: Spleens were removed and a cell suspension was prepared. Erythrocytes were depleted using red blood cell (RBC) lysis buffer (Beit Haemek, Israel). Cells were washed in phosphate buffer saline (PBS) (Beit Haemek, Israel), and incubated in 4° C. for 15 min in buffer containing PBS and 0.5% bovine serum albumin (BSA) with mouse CD11b microbeads (Miltenyi biotech, Bergisch Gladbach, Germany). Cells were then washed, resuspended in the same buffer and positively selected on a Mini-Macs separation unit through a MS column (Miltenyi biotech).
(§3) In order to assess CI-201 effect on p40 production by macrophages, splenic CD11b cells were incubated over night with IFN-γ and then activated for 24 hours with PGN in the presence CI-201.

IL-12p35 = assay: Q-PCR RNA expression in CD11c+ BMDC's: IL-12p35; settings: CI-201 20 μg/ml, PGN 10 μg/ml
IL-10 [4] = settings: oral 0.1 μg/mouse 5 times every other day
Method: (§4) Inflammatory Markers Evaluation in Serum: Serum was separated by centrifuge and stored at −70° C. Analysis of inflammatory markers was performed by ELISA (IL-10; R&D and SAA; BIOSOURCE).
(§5) Thus, Apo-E KO mice were orally administered with 0.1 μg/mouse CI-201 or 0.2 ml/mouse PBS, 5 times every other day. Mice serum was collected before treatment (day 0), at the end of the treatment (two weeks) and two weeks thereafter (4 weeks) and the level of the inflammation markers IL-10 and Serum Amyloide A (SAA) were evaluated.

TNF-α [5] = settings: IFN-γ, PGN
Method: (§6) PBMC's from healthy donors were incubated over-night with IFN-γ and then activated with PGN in the presence of CI-201 for another 24 hours. Supernatants were then evaluated for p40 and TNF-α production.

Apo-E KO mice = assay: Assessment of atherosclerosis: lesion area in the aortic sinus; format: in vivo, mouse
IL-12/IL-23p40 = assay: Q-PCR RNA expression in CD11c+ BMDC's: IL-12/IL-23p40; settings: CI-201 20 μg/ml, PGN 10 μg/ml, first 6 hours following activation, normalized to GAPDH
IL12p40 [6] = settings: human Mo-DC's, PGN 10 μg/ml, 24 hours
Method: (§7) Supernatants were collected 24 hours following activation and the levels of p40 (FIG. 30a) and TNF-α (FIG. 30b) were measured by ELISA.
(§8) Isolation of human monocyte derived dendritic cells (Mo-DC's): PBMCs were isolated from heparinized whole blood from healthy donors by Ficoll-Paque (Amersham, Uppsala, Sweden). Cells were incubated at 4° C. for 15 minutes in buffer containing PBS, 0.5% bovine serum albumin (BSA) and 2 mM EDTA with human CD14 microbeads (Miltenyi biotech) washed and positively selected on a Midi-Macs separation unit through LS column. The resulting cells were counted washed and seeded (10^6/ml) in medium containing RPMI-1640, L-glutamine, 3-mercaptoethanol, 10% FCS, antibiotics (Penicillin, Streptomycin), non essential amino acids, sodium pyruvate, 40 ng/ml of human GM-CSF and 20 ng/ml of human IL-4 (R&D systems, Minneapolis, Minn.). Medium was replaced every other day and cells were used for subsequent experiments on days 5-6 post culturing. Cell purity was >75% as determined by FACS for CD11c.
(§9) Cytokine analysis: For the detection of cytokine production, supernatants from BMDC's and Mo-DC's following a 24 hour treatment were tested with Duoset ELISA kits for mouse IL12p40, TNF-α, IL-6 and human IL12p40 and TNF-α (R&D systems, Minneapolis, Minn.) respectively.

IL12p40 [7] = assay: p40 production by activated BMDC's (ELISA); format: cell-based, mouse
p40 [8] = settings: splenic CD11b cells, IFN-γ over night, PGN 24 hours
Method: as §2, §3

TNF-α [9] = settings: BMDC's, activators other than PolyI:C
Method: Isolation of bone-marrow derived dendritic cells (BMDC's): Bone-marrow was flushed out with cold RPMI-1640 from mice femur and tibia. […] Cells were then washed, resuspended in the same buffer, and depleted from B and T cells on a Midi-Macs separation unit through a LD or LS column (Miltenyi biotech). The depleted cells were then counted, washed and seeded (10^6/ml) in medium containing RPMI-1640, L-glutamine, β-mercaptoethanol, 10% FCS, antibiotics (Penicillin, Streptomycin) and 20 ng/ml of mouse GM-CSF (Peprotech, Rehovot, Israel). Medium was replaced every other day and cells were used for subsequent experiments on days 5-6 post culturing.
as §9

p40 [10] = settings: PBMC's from two donors, IFN-γ over-night, PGN 24 hours; all tested concentrations
Method: as §6

Serum Amyloide A (SAA) = assay: Inflammatory markers in serum (ELISA): SAA; format: in vivo; settings: oral 0.1 μg/mouse 5 times every other day; day 0, 2 and 4 weeks; control group dramatically increased
Method: as §4, §5

TNF-α [11] = settings: human Mo-DC's, PGN 10 μg/ml, 24 hours
Method: as §7, §8, §9

IL-10 [12] = assay: RT-PCR cytokine expression in the aorta: IL-10; format: in vivo, mouse
Method: as §1

IL-27p28 = assay: Q-PCR RNA expression in CD11c+ BMDC's: IL-27p28; settings: CI-201 20 μg/ml, PGN 10 μg/ml
IL-6 = settings: BMDC's, PGN activation
Method: BMDC's were incubated for 1 hour with different CI-201 concentrations prior to activation with 10 μg/ml of PGN. Supernatant were collected 24 hours following activation and the levels of IL-6 (FIG. 3M) and IL-1 (FIG. 3N) were measured.
as §9

IL-10 and IFN-γ = settings: oral 1 mg/dose 5 times every other day
Method: The effects of CI-201 treatment on cytokine expression in the targeted organ—the aorta, as well as in the spleen, liver, kidneys and small intestine were evaluated using RT-PCR as described hereinabove. Apo-E KO mice were orally administered with 1 mg/dose CI-201 or with 0.2 ml/mouse PBS, 5 times every other day. The expression of the anti-inflammatory cytokine IL-10 and the pro-inflammatory cytokine IFN-γ were determined 8 weeks after final oral administration.

IL-23p19 = settings: CD11c+ BMDC's, CI-201 20 μg/ml, PGN 10 μg/ml
IL-1 = settings: BMDC's, PGN activation
Method: Supernatant were collected 24 hours following activation and the levels of IL-6 (FIG. 3M) and IL-1 (FIG. 3N) were measured.
Isolation of bone-marrow derived dendritic cells (BMDC's): Bone-marrow was flushed out with cold RPMI-1640 from mice femur and tibia. A cell suspension was prepared and erythrocytes were removed using red blood cell (RBC) lysis buffer (Beit Haemek, Israel). […] Cells were then washed, resuspended in the same buffer, and depleted from B and T cells on a Midi-Macs separation unit through a LD or LS column (Miltenyi biotech). The depleted cells were then counted, washed and seeded (10^6/ml) in medium containing RPMI-1640, L-glutamine, β-mercaptoethanol, 10% FCS, antibiotics (Penicillin, Streptomycin) and 20 ng/ml of mouse GM-CSF (Peprotech, Rehovot, Israel). Medium was replaced every other day and cells were used for subsequent experiments on days 5-6 post culturing.

IL-12 = assay: RT-PCR cytokine expression in the aorta: IL-12; format: in vivo; settings: oral 1 mg/mouse 5 times every other day, 8 weeks after final administration
Method: as §1

Structure (SMILES): CCCCCCCCCCCCCCCCOC[C@H](COP(=O)([O-])OCC[N+](C)(C)C)OCCCCC(=O)O [CI-201, 1-Hexadecyl-2-(5′-Carboxy-butyl)-sn-glycero-3-phosphocholine]
- IFN-γ production by CD4+ T cells (IFN-γ [1]): reduced IFN-γ production
- arthritis development (paw swelling, arthritis score, percentage of rats with symptoms) (Lewis rats; continuous treatment, high dose: 5 feedings before induction, then 3 times a week for about 30 days): substantially attenuated arthritis development
- paw swelling versus PBS-pretreated rats (Lewis rats; oral pre-treatment 4.0 mg/kg 5 times every other day before AIA induction): significant decrease
- mobility (Lewis rats; oral pre-treatment with the higher dose (4 mg/kg) before AIA induction): close to that of normal rats
- p19 expression (gene chip) (CD11c+BMDC's): reduced p19 expression
- p40 RNA expression (gene chip) (CD11c+BMDC's): reduced RNA expression
- IFN-γ expression in the aorta versus PBS (IFN-γ [2]): reduced expression level
- TNF-α production levels versus control cells (TNF-α [3]): no major differences
- RNA expression level of p35 (IL-12p35): did not modify
- IL-10 serum level (IL-10 [4]; 2 weeks after end of treatment (4 weeks)): decay
- IL-10 serum level (IL-10 [4]; end of the treatment (2 weeks)): substantial increase
- TNF-α production (TNF-α [5]; PBMC's from donor I): did not impair
- TNF-α levels (TNF-α [5]; PBMC's from donor II): modest reduction
- Aortic Sinus Lesion (Apo-E KO mice; oral 0.1 μg/dose, 3 monthly sets of 5 administrations, 12 weeks after first feeding, 26-28 weeks old mice): 228,000±25,772 μm^2
- decrease in atherosclerotic lesion in the aortic sinus as compared with the PBS treated group (Apo-E KO mice; oral 0.1 μg/dose, P<0.05): 92%
- Aortic Sinus Lesion (Apo-E KO mice; oral 1 μg/dose, 3 monthly sets of 5 administrations, 12 weeks after first feeding, 26-28 weeks old mice): 295,729 ± 20,909 μm^2
- Aortic Sinus Lesion (Apo-E KO mice; oral 10 μg/dose, 3 monthly sets of 5 administrations, 12 weeks after first feeding, 26-28 weeks old mice): 272,483 ± 20,505 μm^2
- decrease of the aortic sinus lesion versus PBS control (Apo-E KO mice; oral 0.025 mg/dose, 8 weeks, P=0.051): 33%
- most effective dose for inhibiting disease progression (Apo-E KO mice; oral 0.1, 1 or 10 μg/dose tested): 0.1 μg/dose
- disease progression (lesion area versus base line group) (Apo-E KO mice; oral 0.1, 1 or 10 μg/dose, 3 monthly sets): completely inhibited disease progression; also recorded: inhibited the disease progression
- atherogenesis in Apo-E KO mice, oral administration (summary of earlier examples) (Apo-E KO mice; oral administration): substantially inhibited atherogenesis
- Aortic Sinus Lesion (Apo-E KO mice; oral gavage 0.025 mg/dose every day (5 times a week) for 8 weeks, male 12 weeks old mice): 125,192±19,824 μm^2
- p40 RNA expression, inhibition compared to control (IL-12/IL-23p40): more than two folds
- p40 production (IL12p40 [6]): can inhibit p40 production
- p40 production (IL12p40 [7]; BMDC's, 1 hour pre-incubation, activation with PGN (TLR 2/6) 10 μg/ml, 24 hours): significant and dose dependent reduction
- p40 secretion (IL12p40 [7]; BMDC's, CpG (TLR9) engagement, only 20 μg/ml of CI-201): significantly inhibit
- p40 secretion (IL12p40 [7]; BMDC's, Fc-CD40L activation 1 μg/ml): significant reduction
- p40 production (IL12p40 [7]; BMDC's, PolyI:C (TLR3) activation 25 μg/ml): significant and dose dependent p40 inhibition
- p40 levels (IL12p40 [7]; BMDC's, activation with LPS (TLR4) 100 ng/ml, intermediated concentrations of CI-201): significant, but small reduction
- p40 production (IL12p40 [7]; BMDC's, activation with Pam3CSK4 (TLR1/2) 300 ng/ml, 24 hours): significant p40 inhibition
- concentration giving maximal inhibition of p40 production (highest concentration used) (IL12p40 [7]; activated DC's in vitro): 20 µg/mL
- p40 production levels versus control cells (p40 [8]): no major differences
- production of TNF-α (TNF-α [9]): did not impair
- p40 production (p40 [10]): close to complete inhibition
- SAA serum levels (Serum Amyloide A (SAA)): no alterations
- ability to produce TNF-α (TNF-α [11]): without altering
- IL-10 expression in the aorta, higher than control group (IL-10 [12]; oral 0.025 mg/dose, 8 weeks): 40%
- IL-10 expression in the aorta versus PBS (IL-10 [12]; oral 1 mg/mouse 5 times every other day, 8 weeks after final administration): elevated levels
- RNA expression level of p28 (IL-27p28): did not modify
- production of IL-6 (IL-6): did not impair
- cytokine expression in the spleen and in the small intestine versus PBS (IL-10 and IFN-γ; 8 weeks after final administration): no differences
- cytokine expression in the liver and in kidney (IL-10 and IFN-γ; data not shown): No change
- RNA expression level of p19 (IL-23p19): substantial inhibition
- production of IL-1 (IL-1): did not impair
- IL-12 expression in the aorta versus PBS (IL-12): reduced levels
